Experimental data published in ChEMBL document CHEMBL5331124, “Degradation of Hexokinase 2 Blocks Glycolysis and Induces GSDME-Dependent Pyroptosis to Amplify Immunogenic Cell Death for Breast Cancer Therapy” (J Med Chem, 2023).
The source made the active and inactive calls.

Legend:
[1] = target: T1, Hexokinase-2 (Homo sapiens, UniProt P52789); test: (§1) Induction of HK2 degradation in human MDA-MB-231 cells measured for 36 hrs; format: cell-based
T1 sequence (P52789 whole entry): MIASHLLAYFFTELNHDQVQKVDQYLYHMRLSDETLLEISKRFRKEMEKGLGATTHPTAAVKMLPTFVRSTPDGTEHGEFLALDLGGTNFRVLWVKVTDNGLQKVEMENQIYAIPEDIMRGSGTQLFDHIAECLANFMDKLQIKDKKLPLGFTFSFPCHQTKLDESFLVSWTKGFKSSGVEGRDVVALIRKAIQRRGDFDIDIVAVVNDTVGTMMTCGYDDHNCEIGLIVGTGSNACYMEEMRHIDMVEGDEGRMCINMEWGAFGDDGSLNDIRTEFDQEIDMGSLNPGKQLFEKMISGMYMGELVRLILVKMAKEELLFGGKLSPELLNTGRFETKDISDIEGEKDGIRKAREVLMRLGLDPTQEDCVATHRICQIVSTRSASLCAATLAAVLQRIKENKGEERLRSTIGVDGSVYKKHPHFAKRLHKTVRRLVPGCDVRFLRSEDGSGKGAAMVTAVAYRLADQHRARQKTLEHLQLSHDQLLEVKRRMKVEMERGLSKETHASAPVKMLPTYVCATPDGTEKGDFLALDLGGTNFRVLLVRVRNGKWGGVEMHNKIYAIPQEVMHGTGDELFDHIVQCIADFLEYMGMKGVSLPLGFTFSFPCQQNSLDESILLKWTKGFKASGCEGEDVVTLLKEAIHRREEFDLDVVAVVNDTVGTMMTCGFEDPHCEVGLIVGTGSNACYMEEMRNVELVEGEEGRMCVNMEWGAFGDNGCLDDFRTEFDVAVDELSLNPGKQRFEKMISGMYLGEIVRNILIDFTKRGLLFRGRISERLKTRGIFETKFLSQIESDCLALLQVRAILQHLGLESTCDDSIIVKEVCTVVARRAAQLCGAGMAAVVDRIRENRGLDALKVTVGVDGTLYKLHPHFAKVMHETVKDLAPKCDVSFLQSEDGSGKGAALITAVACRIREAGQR

[2] = target: T2, Hexokinase-2 (Homo sapiens) (UniProt P52789); test: as §1; format: cell-based
T2 sequence (whole entry): T1 sequence (P52789 whole entry)

[3] = test system: 4T1; test: Induction of pyroptosis in mouse 4T1 cells assessed as increase in N-terminal GSDME level at 20 uM incubated for 36 hrs; format: functional, cell-based
[4] = Toxicity in BALB/c mouse implanted with mouse 4T1 cells assessed as effect on platelet count at 50 mg/kg, ip measured after 25 days in presence of cisplatin by routine blood test; format: organism-based; details: in vivo, 600 h, time 25 day
[5] = test system: 4T1; test: Antitumor immunity activity against mouse 4T1 cells implanted in BALB/c mouse assessed as increase in proportion of […] positive T cells in tumor by flow cytometry analysis; format: functional, cell-based
[6] = Toxicity in BALB/c mouse implanted with mouse 4T1 cells assessed as effect on red blood cells at 50 mg/kg, ip measured after 25 days in presence of cisplatin by routine blood test; format: organism-based; details: in vivo, 600 h, time 25 day
[7] = test system: 4T1; test: Antitumor activity against mouse 4T1 cells implanted in BALB/c mouse model assessed as reduction tumor cell proliferation at 50 mg/kg, ip measured after 25 days by H and E staining based analysis; format: functional, organism-based; details: time 25.0 day
[8] = Toxicity in BALB/c mouse implanted with mouse 4T1 cells assessed as effect on mean corpuscular hemoglobin at 50 mg/kg, ip measured after 25 days by routine blood test; format: organism-based; details: in vivo, 600 h, time 25 day
[9] = test system: HGC-27; test: Potency index, ratio of IC50 for lonidamine to test compound IC50 for human HGC-27 cells assessed as cell growth inhibition measured for 72 hrs by MTT assay; format: functional
[10] = Toxicity in BALB/c mouse implanted with mouse 4T1 cells assessed as change in body weight at 50 mg/kg, ip measured after 23 days in presence of cisplatin; format: organism-based; details: in vivo, 552 h, time 23 day
[11] = test system: 4T1; test: Antitumor activity against mouse 4T1 cells implanted in BALB/c mouse assessed as reduction in tumor volume at 50 mg/kg, ip measured after 23 days in presence of cisplatin; format: functional, organism-based; details: time 23.0 day
[12] = test system: 4T1; test: Antitumor activity against mouse 4T1 cells implanted in BALB/c mouse assessed as reduction in HK2 proetin level […] at 50 mg/kg, ip measured after 25 days in presence of cisplatin by Western blot analysis; format: functional, organism-based; details: time 25.0 day
[13] = Toxicity in BALB/c mouse implanted with mouse 4T1 cells assessed as pathological changes in lung at 50 mg/kg, ip measured after 25 days by Hematoxylin -eosin staining based analysis; format: organism-based; details: in vivo, 600 h, time 25 day
[14] = target: Protein cereblon/Hexokinase-2 (Homo sapiens) (UniProt P52789+Q96SW2); test: PROTAC activity at CRBN/HK2 in human MDA-MB-231 cells assessed as […] ternary complex formation at 10 uM incubated for 24 hrs in presence of MG132; format: cell-based
Protein cereblon/Hexokinase-2 (Homo sapiens), sequence (Q96SW2 whole entry, looked up, one chain of several): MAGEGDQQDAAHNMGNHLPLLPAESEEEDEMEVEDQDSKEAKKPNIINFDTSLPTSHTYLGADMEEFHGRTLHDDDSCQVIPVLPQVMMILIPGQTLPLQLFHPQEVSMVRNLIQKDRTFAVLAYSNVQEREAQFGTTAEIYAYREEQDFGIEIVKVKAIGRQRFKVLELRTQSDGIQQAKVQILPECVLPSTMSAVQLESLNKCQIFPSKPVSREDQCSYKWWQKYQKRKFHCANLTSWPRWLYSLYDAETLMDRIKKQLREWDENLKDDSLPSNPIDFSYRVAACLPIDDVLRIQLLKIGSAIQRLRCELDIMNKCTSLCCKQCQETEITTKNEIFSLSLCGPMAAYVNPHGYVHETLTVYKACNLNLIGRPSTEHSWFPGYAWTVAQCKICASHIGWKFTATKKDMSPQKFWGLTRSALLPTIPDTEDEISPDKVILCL

[15] = target: T2, Hexokinase-2 (Homo sapiens); test: Induction of HK2 degradation in human MDA-MB-231 cells assessed as decrease in Bcl-2 expression at 20 uM measured for 36 hrs by Western blot analysis; format: cell-based
[16] = target: T2, Hexokinase-2 (Homo sapiens); test: Induction of HK2 degradation in human MDA-MB-231 cells at 20 uM measured for 36 hrs by Western blot analysis; format: cell-based
[17] = test system: 4T1; test: Antitumor immunity against mouse 4T1 cells implanted in BALB/c mouse model assessed as increase in N-terminal GSDME expression in tumor; format: functional, cell-based
[18] = target: T2, Hexokinase-2 (Homo sapiens); test: Induction of HK2 degradation in human MDA-MB-231 cells assessed as increase in VDAC expression at 20 uM measured for 36 hrs by Western blot analysis; format: cell-based
[19] = Toxicity in BALB/c mouse implanted with mouse 4T1 cells assessed as effect on hemoglobin level at 50 mg/kg, ip measured after 25 days in presence of cisplatin by routine blood test; format: organism-based; details: in vivo, 600 h, time 25 day
[20] = test system: MDA-MB-231; test: Antitumor activity against human MDA-MB-231 cells xenografted in BALB/c nude mouse assessed as reduction in tumor growth at 50 mg/kg, ip measured after 28 days; format: functional, organism-based; details: time 28.0 day

O=C1CCC(N2C(=O)c3cccc(NCCCCNC(=O)c4nn(Cc5ccc(Cl)cc5Cl)c5ccccc45)c3C2=O)C(=O)N1 (stereo not given)
active: Activity [2] Dose-Dependent Effect | Activity [3] | Activity [5] | Activity [7] | Activity [11] | Activity [12] | Activity [15] | Activity [16] | Activity [17] | Activity [18] | Activity [20]
inactive: Activity [14]
Non-Toxic: Activity [4] | Activity [6] | Activity [8] | Activity [10] | Activity [13] | Activity [19]
12.7: Ratio IC50 [9]
790 nM: DC50 [1]
